PMC3537624, “Functional Characterization of the Short Neuropeptide F Receptor in the Desert Locust, Schistocerca gregaria” (PLoS ONE, 2013)
Entries after “also recorded” stand apart in the source; their conditions may differ. Where a SMILES comes first, the peptide text is derived from it.

Legend:
[1] = tested on: adult locusts; experiment: Peptide injection feeding assay (food uptake); assay type: in vivo, Schistocerca gregaria; details: for reduction of food uptake: 2 µl of 100 µg/ml injected dorsally, cabbage for one hour, vs saline, n = 20; for effect on food uptake (result in words): normalized to body mass, mean, n = 20, ANOVA with Tukey
Experimental: The desert locusts used in this study were all gregarious adult animals. They were reared under crowded conditions at a constant temperature (32±1°C) and photoperiod (14 h). The locusts were kept at high density (>200 locusts per cage) and fed daily with cabbage and dry oat flakes. In an effort to normalize feeding responses, locusts used in feeding experiments were placed in separate cages and placed on a controlled dietary regimen one week prior to the assay. Locusts were fed for two hours each day (9 h–10 h, 16 h–17 h).
At 9 AM, 2 µl of a 100 µg/ml peptide solution (experimental condition) or saline solution (negative control) was injected dorsally between the first and second abdominal segments using a 710 RN injector (Hamilton). Pieces of cabbage were weighed in advance and presented to the locusts for one hour, after which all animals had stopped feeding. In parallel, similar pieces of cabbage were put in empty cages during the period of the experiment. The relative weight loss of these pieces was used to estimate the effect of evaporation All cabbage leafs were weighed after the feeding assay, total food uptake was calculated and corrected for the weight that was lost by evaporation. The results were analysed using GraphPad Prism 5 (GraphPad Software).

[2] = tested on: Schgr-sNPFR; experiment: Calcium assay, aequorin bioluminescence in CHO-PAM28-Schgr-sNPFR cells (no Gα16); assay type: cell-based, Schistocerca gregaria; details: for EC50: CHO-PAM28 cells without Gα16, aequorin bioluminescence, three independent measurements in duplicate; for maximum response (aequorin bioluminescence): Schgr-sNPF and Schgr-sNPF^4−11 compared with each other
Experimental: (§1) Three cell lines were used in this study. General receptor studies were performed in Chinese Hamster Ovary (CHO)-WTA11 cells, a clone of CHO cells stably coexpressing the promiscuous Gα16 and apoaequorin. To determine the mode of downstream signalling, we used either CHO-PAM28 cells, a clone of CHO cells expressing apoaequorin but not the promiscuous Gα16, or Human Embryonic Kidney (HEK) 293T cells, expressing neither Gα16 nor apoaequorin. All cell lines used in this study were provided by Prof. Dr. M. Parmentier and Dr. M. Dethreux (Université Libre de Bruxelles) and Euroscreen S.A., Belgium.
(§2) The cells were cultured in monolayer, in Dulbecco’s Modified Eagle Medium Nutrient Mixture F12-Ham (DMEM/F12, Invitrogen) containing 10% fetal calf serum (Invitrogen), 100 IU/ml penicillin/streptomycin (Invitrogen). For the CHO-WTA11 cells, 250 µg/ml Zeocin™ (Invitrogen) was added to the medium, while to the medium of CHO-PAM28 cells, 5 µg/ml Puromycin (Invitrogen) was added. The cells were grown at 37°C, with a constant supply of 5% CO2 and split every 3 days.
(§3) Transfections with either Schgr-sNPFR/pcDNA3.1D or empty pcDNA3.1D vector were performed in T75 flasks at ca. 60% confluency. Transfection reagent was prepared by combining 2,5 ml of DMEM/F12, 5 µg of the plasmid DNA and 12.5 µl of PLUS™ Reagent (Invitrogen). After storing the medium at room temperature for 5 minutes, 30 µl Lipofectamine™ LTX (Invitrogen) was added and the transfection medium was added dropwise into 3 ml of culture medium after 30 minutes incubation at room temperature. HEK 293T cells were cotransfected with a reporter construct, consisting of a luciferase gene situated downstream of a cyclic AMP (cAMP) response element (CRE) and promoter.
In the calcium-assays, CHO-WTA11 or CHO-PAM28 cells expressing the Schgr-sNPFR were detached two days after transfection, counted using the NucleoCounter® NC-100™ (Chemometec), and resuspended in DMEM/BSA (DMEM/F12, 10 mM HEPES, 0.1% bovine serum albumin) at a concentration of 5×10^5 cells/ml. Cells where then shielded from light and incubated for 4 h with 5 µM coelenterazine h (Invitrogen), allowing the aequorin holoenzyme to be reconstituted.
After incubation, the cell suspension was injected in wells containing a peptide solution, dissolved in 50 µl BSA medium. After 30 s, 50 µl of 0.1% Triton X-100 was injected, lysing the cells and thus serving as an internal reference. Wells containing no peptide but DMEM/BSA were used as a negative control while wells containing 1 µM ATP were used as a positive control. Light emission was monitored using a Mithras LB 940 Microplate Reader (Berthold technologies).
(§4) Data generated in these experiments were analysed using GraphPad Prism 5 (GraphPad Software).
These two peptides were then further studied with respect to their mode of intracellular signalling. Cell based assays were performed using a CHO-PAM28 cell line, expressing apoaequorin, allowing the detection of increases in the intracellular concentration of calcium ions. […] The calculated EC50 values were both in the nanomolar range.

[3] = tested on: Schgr-sNPFR; experiment: Calcium assay, aequorin bioluminescence in CHO-WTA11-Schgr-sNPFR cells (promiscuous Gα16); assay type: cell-based, Schistocerca gregaria; details: for EC50: CHO-WTA11 cells with Gα16, aequorin/coelenterazine h luminescence, 30 s read, ± (95% confidence interval), three independent measurements in duplicate
Experimental: as §1, §2
Transfections with either Schgr-sNPFR/pcDNA3.1D or empty pcDNA3.1D vector were performed in T75 flasks at ca. 60% confluency. […]
In the calcium-assays, CHO-WTA11 or CHO-PAM28 cells expressing the Schgr-sNPFR were detached two days after transfection, counted using the NucleoCounter® NC-100™ (Chemometec), and resuspended in DMEM/BSA (DMEM/F12, 10 mM HEPES, 0.1% bovine serum albumin) at a concentration of 5×10^5 cells/ml. […]
After incubation, the cell suspension was injected in wells containing a peptide solution, dissolved in 50 µl BSA medium. […] Light emission was monitored using a Mithras LB 940 Microplate Reader (Berthold technologies).
as §4
As putative ligands for the cloned Schistocerca gregaria sNPF receptor, Schgr-sNPF (SNRSPSLRLRFa), Schgr-sNPF^4−11 (SPSLRLRFa) and Schgr-trNPF (YSQVARPRFa) were tested. […] For each of these peptides, the dose-dependent activation of the Schgr-sNPFR was studied in CHO-WTA11 cells and EC50 values were calculated.

[4] = tested on: Schgr-sNPFR; experiment: cAMP assay, CRE-luciferase bioluminescence in HEK-293T-Schgr-sNPFR cells; assay type: cell-based, Schistocerca gregaria; details: HEK 293T cells; for IC50: 200 µM IBMX + NKH 477, 3 h at 37°C, three independent measurements in duplicate, read-out: IC50 (inhibition of CRE-luciferase reporter expression); for inhibition of the reporter expression (result in words): CRE-luciferase, 200 µM IBMX + NKH 477
Experimental: as §1, §2, §3
HEK 293T cells, cotransfected with the Schgr-sNPFR/pcDNA3.1 vector and the CRE-luciferase construct, were detached two days after transfection, centrifuged and resuspended to a concentration of 10^6 cells/ml in DMEM/F12 containing 200 µM 3-isobutyl-1-methylxanthine (IBMX; Sigma-Aldrich). Fifty µl of this suspension was introduced into in each well of a 96-well-plate. When studying stimulatory effects, peptides were dissolved in DMEM/F12 containing 200 µM IBMX. When studying inhibitory effects, these peptides were dissoved in DMEM/F12 supplemented with 200 µM IBMX and 20 µM NKH 477 (a water-soluble analogue of forskolin; Sigma-Aldrich). […] Light emission, resulting from the luciferase activity, was measured for 5 s/well using the Mithras LB 940 Microplate Reader.
as §4
The possible effect of receptor activation on intracellular cyclic AMP (cAMP) production was analysed in HEK 293T cells that were cotransfected with a CRE-luciferase reporter construct.

Molecule	reduction of food uptake [1] [%]	effect on food uptake (result in words) ([1]; ** p<0.01, *** p<0.001)	effect on food uptake (result in words) ([1]; ** p<0.01, *** p<0.001, listed as sNPF)	increase of aequorin bioluminescence ([2]; CHO-PAM28 cells)	EC50 [2] [nM]	maximum response (aequorin bioluminescence) ([2]; CHO-PAM28 cells)	agonist character with respect to calcium response ([2]; CHO-PAM28 cells, maximum response lower than that of Schgr-sNPF^4−11)	EC50 [3] [nM]	IC50 [4] [nM]	inhibition of the reporter expression (result in words) [4]	activation of the receptor (result in words) ([3]; CHO-WTA11 cells, aequorin bioluminescence)	effect on food uptake (result in words) ([1]; ** p<0.01, *** p<0.001, listed as sNPF^4−11)
SNRSPSLRLRFa [Schgr-sNPF, Schistocerca gregaria short neuropeptide F, […]a]	30	significant decrease of food uptake	significant decrease in food uptake	dose-dependent increase of aequorin bioluminescence	3.28 ± 2.2	markedly lower than that of Schgr-sNPF^4−11	partial agonist	2.05 ± 0.63	0.0763 ± 0.0261	highly effective		
YSQVARPRFa [Schgr-trNPF, truncated form of Schgr-neuropeptide F, …a]											No dose-dependent response was observed; also recorded: not responsive	
CC(C)C[C@H](NC(=O)[C@H](CCCNC(=N)N)NC(=O)[C@H](CC(C)C)NC(=O)[C@H](CO)NC(=O)[C@@H]1CCCN1C(=O)[C@@H](N)CO)C(=O)N[C@@H](CCCNC(=N)N)C(=O)N[C@@H](Cc1ccccc1)C(N)=O [Schgr-sNPF^4−11] (H-SPSLRLRF-NH2)	37	significant decrease of food uptake		dose-dependent increase of aequorin bioluminescence	32.2 ± 18.2	markedly higher than those obtained with Schgr-sNPF		5.56 ± 1.8	0.0955 ± 0.0323	highly effective		significant decrease in food uptake
